Values of other authors as cited in patent publication US20080207601A1, “Methods of and Compositions For the Prevention of Anxiety, Substance Abuse, and Dependence” (Hythiam , Inc., priority 2005, published 2008).

Assays:
[1] = in vivo
[2] = as much as
allopregnanolone = conditions: clinical studies
[3] = not given; remark: listed apart in the source

N[C@@H]1C[C@H]1c1ccccc1 (racemic) [TRANYLCYPROMINE]
time in which the drug is excreted [1]: 24 h

CCOC(=O)c1ncn2c1CN(C)C(=O)c1cc(F)ccc1-2 [flumazenil, ethyl 8-fluoro-5,6-dihydro-5-methyl-6-oxo-4H-imidazo-[1,5-a][1,4]benzodiazepine-3-carboxylate]
modulation of the GABA evoked Cl-current (GABAA receptors; 3 μM flumazenil, ethanol withdrawn cells): potentiates

COc1cccc(C2(O)CCCCC2CN(C)C)c1 (centres unmarked) [TRAMADOL]
potency relative to morphine (IV/IM route): Tramadol is approximately 10% as potent as morphine, when given

CCCC(C)(COC(N)=O)COC(N)=O [MEPROBROMATE]
ingested amount with reported survival [2]: much as 40 g.

CNCCC(Oc1ccc(C(F)(F)F)cc1)c1ccccc1 (centres unmarked) [Fluoxetine]
brain and cerebrospinal fluid content of allopregnanolone (allopregnanolone): increase

COc1ccc2c3c1O[C@H]1[C@@H](O)CC[C@H]4[C@@H](C2)N(C)CC[C@@]341 [DIHYDROCODEINE]
potency relative to codeine (in vivo): Dihydrocodeine is approximately twice as potent as codeine; this is

CC(=O)[C@H]1CC[C@H]2[C@@H]3CC[C@@H]4C[C@@H](O)CC[C@]4(C)[C@H]3CC[C@]12C [epipregnanolone]
effect on potentiation of GABAA receptor function by allopregnanolone and alphaxalone (GABAA receptor): inhibited

CC(=O)[C@H]1CC[C@H]2[C@@H]3CC[C@H]4C[C@@H](O)CC[C@]4(C)[C@H]3CC[C@]12C [isopregnanolone]
effect on potentiation of GABAA receptor function by allopregnanolone and alphaxalone (GABAA receptor): inhibited

C[C@]12C=CC(=O)N[C@@H]1CC[C@@H]1[C@@H]2CC[C@]2(C)[C@@H](C(=O)Nc3cc(C(F)(F)F)ccc3C(F)(F)F)CC[C@@H]12 [Dutasteride, (5α,17β)-N-{2,5 bis(trifluoromethyl)phenyl}-3-oxo-4-azaandrost-1-ene-17-carboxamide]
adverse effects compared with therapeutic dose of 0.5 mg ([3]; daily doses of 5 mg, 60 subjects, 6 months): subjects for 6 months with no additional adverse effects to those
safety concerns ([3]; single doses up to 40 mg (80 times the therapeutic dose) for 7 days, volunteer studies): without significant safety concerns. In a clinical study, daily doses

CN1C(=O)CN=C(c2ccccc2)c2cc(Cl)ccc21 [diazepam]
effect on the positive modulation of 3 μM flumazenil induced by ethanol withdrawal (GABAA receptors; 10 μM diazepam substituted for ethanol): negated the positive modulation
